One test deals with T1, AXL (Homo sapiens, UniProt P30530).
T1 construct: purchased Eurofins Discovery (Kinase Profiler service)
T1 sequence (P30530 26-894): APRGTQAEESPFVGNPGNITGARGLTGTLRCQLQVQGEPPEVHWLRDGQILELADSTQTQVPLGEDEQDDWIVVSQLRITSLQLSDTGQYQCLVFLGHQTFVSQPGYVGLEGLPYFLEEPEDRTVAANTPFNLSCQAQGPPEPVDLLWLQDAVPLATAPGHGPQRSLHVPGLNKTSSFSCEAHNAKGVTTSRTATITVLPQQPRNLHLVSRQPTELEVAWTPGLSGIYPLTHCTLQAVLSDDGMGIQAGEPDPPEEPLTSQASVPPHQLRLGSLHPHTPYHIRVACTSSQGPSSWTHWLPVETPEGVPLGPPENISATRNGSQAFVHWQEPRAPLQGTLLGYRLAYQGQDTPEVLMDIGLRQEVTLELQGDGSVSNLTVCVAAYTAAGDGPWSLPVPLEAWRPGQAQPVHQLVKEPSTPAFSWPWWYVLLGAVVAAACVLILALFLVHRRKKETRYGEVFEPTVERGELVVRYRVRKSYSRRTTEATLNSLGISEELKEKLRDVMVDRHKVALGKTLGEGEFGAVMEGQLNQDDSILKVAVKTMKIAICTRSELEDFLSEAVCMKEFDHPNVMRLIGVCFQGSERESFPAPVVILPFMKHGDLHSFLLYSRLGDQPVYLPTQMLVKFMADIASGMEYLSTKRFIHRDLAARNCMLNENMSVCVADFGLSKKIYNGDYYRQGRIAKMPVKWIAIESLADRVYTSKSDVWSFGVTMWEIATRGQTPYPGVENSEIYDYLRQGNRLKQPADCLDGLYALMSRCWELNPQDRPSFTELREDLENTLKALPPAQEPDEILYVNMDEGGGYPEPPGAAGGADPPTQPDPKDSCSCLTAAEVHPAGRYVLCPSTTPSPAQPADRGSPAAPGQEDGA
The test is described as follows: Filter-binding radiometric kinase activity assay (KinaseProfiler, Eurofins). In kind it is biochemical. As to conditions: 1 µM compound; read-out: % Residual enzymatic activity at 1 µM AXL. The procedure:
(§1) Filter-binding radiometric kinase activity assay (Kinase Profiler™) from Eurofins Discovery was used to determine the % of inhibition and/or IC50 values. […] The reaction is initiated by the addition of the Mg/ATP mixture. After incubation for 40 minutes at room temperature, the reaction is stopped by the addition of phosphoric acid to a concentration of 0.5%. 10 µL of the reaction is then spotted onto a P30 filter mat and washed four times for 4 minutes in 0.425% phosphoric acid and once in methanol prior to drying and scintillation counting. The IC50 values were derived by fitting a sigmoidal dose-response curve to a plot of assay readout over inhibitor concentration. All fits were computed with the GraphPad Prism Software (San Diego, CA, United States of America). Ki values were derived from IC5o values using Cheng Prusoff equation (Cheng Y et al., Biochem Pharmacol 22(23):3099-3108, 1973).

The next test concerns the target T2, MET (Homo sapiens, UniProt P08581).
T2 construct: purchased Eurofins Discovery (Kinase Profiler service)
The test is described as above. The test is classed as biochemical. The following applies: 1 µM compound; read-out: % Residual enzymatic activity at 1 µM MET. The procedure: as §1

The next test addresses T3, Mer (Homo sapiens, UniProt Q12866).
T3 construct: purchased Eurofins Discovery (Kinase Profiler service)
T3 sequence (Q12866 21-999): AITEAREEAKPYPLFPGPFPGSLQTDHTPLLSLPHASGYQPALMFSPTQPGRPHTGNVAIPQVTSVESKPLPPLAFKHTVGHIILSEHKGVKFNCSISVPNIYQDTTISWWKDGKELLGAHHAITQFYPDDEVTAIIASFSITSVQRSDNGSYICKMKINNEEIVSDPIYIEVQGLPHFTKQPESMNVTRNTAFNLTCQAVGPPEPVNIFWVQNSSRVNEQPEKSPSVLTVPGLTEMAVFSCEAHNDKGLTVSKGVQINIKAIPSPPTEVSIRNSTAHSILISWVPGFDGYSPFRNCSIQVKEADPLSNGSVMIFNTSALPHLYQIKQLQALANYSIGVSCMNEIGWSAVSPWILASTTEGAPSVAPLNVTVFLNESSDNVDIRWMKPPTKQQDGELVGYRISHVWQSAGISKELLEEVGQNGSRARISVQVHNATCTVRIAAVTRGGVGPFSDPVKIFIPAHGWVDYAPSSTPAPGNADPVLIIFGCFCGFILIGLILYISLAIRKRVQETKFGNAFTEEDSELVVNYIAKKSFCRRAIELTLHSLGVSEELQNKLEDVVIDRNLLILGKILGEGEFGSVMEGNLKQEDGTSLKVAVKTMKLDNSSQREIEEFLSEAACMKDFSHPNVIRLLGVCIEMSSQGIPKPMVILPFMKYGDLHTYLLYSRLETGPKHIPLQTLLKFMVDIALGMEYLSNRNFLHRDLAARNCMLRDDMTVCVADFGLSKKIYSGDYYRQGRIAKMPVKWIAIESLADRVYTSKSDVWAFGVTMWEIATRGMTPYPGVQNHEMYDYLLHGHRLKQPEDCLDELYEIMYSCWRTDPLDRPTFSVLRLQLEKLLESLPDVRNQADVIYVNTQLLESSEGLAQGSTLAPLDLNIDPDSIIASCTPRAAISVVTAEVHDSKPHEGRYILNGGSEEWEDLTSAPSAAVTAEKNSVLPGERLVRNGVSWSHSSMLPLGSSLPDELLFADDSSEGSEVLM
The description is as above. In kind it is biochemical. The following applies: 1 µM compound; read-out: % Residual enzymatic activity at 1 µM Mer. The procedure: as §1

The target in the next test is T4, TYRO3 (Homo sapiens, UniProt Q06418).
T4 construct: purchased Eurofins Discovery (Kinase Profiler service)
T4 sequence (Q06418 41-890): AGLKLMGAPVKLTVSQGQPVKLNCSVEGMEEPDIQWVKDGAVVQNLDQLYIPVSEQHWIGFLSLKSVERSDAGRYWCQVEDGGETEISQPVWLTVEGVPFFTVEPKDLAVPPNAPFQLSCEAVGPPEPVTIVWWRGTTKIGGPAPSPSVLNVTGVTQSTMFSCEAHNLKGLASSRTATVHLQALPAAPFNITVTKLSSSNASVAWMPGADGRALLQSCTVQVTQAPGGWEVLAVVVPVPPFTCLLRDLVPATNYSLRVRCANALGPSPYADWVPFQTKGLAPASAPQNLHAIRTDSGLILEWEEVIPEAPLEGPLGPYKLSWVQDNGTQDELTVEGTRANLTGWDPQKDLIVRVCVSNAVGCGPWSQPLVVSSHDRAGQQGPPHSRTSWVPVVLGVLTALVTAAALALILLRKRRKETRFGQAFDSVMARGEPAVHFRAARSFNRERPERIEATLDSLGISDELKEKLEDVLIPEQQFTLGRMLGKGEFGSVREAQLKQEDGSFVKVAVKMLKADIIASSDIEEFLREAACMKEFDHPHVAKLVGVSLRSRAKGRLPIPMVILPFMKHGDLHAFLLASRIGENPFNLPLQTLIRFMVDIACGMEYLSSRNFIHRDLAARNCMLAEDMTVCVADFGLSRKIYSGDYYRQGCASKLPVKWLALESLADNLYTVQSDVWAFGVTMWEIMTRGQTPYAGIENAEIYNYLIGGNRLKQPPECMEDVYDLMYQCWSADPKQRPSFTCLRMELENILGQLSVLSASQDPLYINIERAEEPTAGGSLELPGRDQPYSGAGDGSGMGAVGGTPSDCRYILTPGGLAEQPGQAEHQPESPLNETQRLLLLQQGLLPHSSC
The test is described as above. As to conditions: 1 µM compound; read-out: % Residual enzymatic activity at 1 µM TYRO3. In kind it is biochemical. The method, then: as §1

In another test the target is CDK2E (Homo sapiens, UniProt P24941). The test is described as follows: ADP Glo Kinase assay. The test is classed as biochemical. As to conditions: 1 µM compound; read-out: % Residual enzymatic activity at 1 µM CDK2E. The procedure:
(§2) Inhibition of CDKs and FLT3 were determined using ADP Glo Kinase assays, as previously described in International Patent Publication No WO 2017/020065.
In general terms: ADP-Glo first removes unused ATP, then detects ADP through luciferase.

The target of a further test is CDK4D1 (Homo sapiens, UniProt P11802). The test is described as follows: ADP Glo Kinase assay. In kind it is biochemical. The following applies: 1 µM compound; read-out: % Residual enzymatic activity at 1 µM CDK4D1. The procedure: as §2
CDK4D1, sequence (P11802 whole entry): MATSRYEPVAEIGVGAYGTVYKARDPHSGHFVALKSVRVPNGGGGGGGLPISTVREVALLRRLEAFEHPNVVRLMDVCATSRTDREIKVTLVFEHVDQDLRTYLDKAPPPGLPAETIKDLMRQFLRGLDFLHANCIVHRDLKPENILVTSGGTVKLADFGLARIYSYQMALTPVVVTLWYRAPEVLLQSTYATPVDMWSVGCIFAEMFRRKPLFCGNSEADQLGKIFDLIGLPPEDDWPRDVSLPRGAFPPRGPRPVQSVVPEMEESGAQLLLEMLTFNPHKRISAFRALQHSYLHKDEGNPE
CDK4D1, sequence (P24385 whole entry partner): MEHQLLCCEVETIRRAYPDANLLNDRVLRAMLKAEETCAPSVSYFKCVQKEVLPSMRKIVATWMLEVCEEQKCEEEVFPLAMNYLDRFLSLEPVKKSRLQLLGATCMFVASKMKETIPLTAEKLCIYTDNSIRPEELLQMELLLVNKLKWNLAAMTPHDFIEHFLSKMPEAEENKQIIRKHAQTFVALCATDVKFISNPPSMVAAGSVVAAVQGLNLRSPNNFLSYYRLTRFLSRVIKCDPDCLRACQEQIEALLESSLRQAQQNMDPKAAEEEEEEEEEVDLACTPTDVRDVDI
A further test deals with FLT3-ITD. Description: ADP Glo Kinase assay. In kind it is biochemical. As to conditions: 1 µM compound. The method, then:
as §2

The test system of another test is MV4-11. Description: Proliferation assay (MTT, leukaemia cancer cell line). In kind it is cell-based. The following applies: Homo sapiens; 1 µM compound, MV4-11 cells. From the text:
Compounds from Example 1 were subjected to standard resazurin and MTT assays on solid tumour and leukaemia cancer cell lines, respectively, as previously reported (Wang S et al., J Med Chem 47:1662-1675, 2004 and Diab S et al., CheMedChem 9:962-972, 2014).

T2 sequence (P08581 25-1390): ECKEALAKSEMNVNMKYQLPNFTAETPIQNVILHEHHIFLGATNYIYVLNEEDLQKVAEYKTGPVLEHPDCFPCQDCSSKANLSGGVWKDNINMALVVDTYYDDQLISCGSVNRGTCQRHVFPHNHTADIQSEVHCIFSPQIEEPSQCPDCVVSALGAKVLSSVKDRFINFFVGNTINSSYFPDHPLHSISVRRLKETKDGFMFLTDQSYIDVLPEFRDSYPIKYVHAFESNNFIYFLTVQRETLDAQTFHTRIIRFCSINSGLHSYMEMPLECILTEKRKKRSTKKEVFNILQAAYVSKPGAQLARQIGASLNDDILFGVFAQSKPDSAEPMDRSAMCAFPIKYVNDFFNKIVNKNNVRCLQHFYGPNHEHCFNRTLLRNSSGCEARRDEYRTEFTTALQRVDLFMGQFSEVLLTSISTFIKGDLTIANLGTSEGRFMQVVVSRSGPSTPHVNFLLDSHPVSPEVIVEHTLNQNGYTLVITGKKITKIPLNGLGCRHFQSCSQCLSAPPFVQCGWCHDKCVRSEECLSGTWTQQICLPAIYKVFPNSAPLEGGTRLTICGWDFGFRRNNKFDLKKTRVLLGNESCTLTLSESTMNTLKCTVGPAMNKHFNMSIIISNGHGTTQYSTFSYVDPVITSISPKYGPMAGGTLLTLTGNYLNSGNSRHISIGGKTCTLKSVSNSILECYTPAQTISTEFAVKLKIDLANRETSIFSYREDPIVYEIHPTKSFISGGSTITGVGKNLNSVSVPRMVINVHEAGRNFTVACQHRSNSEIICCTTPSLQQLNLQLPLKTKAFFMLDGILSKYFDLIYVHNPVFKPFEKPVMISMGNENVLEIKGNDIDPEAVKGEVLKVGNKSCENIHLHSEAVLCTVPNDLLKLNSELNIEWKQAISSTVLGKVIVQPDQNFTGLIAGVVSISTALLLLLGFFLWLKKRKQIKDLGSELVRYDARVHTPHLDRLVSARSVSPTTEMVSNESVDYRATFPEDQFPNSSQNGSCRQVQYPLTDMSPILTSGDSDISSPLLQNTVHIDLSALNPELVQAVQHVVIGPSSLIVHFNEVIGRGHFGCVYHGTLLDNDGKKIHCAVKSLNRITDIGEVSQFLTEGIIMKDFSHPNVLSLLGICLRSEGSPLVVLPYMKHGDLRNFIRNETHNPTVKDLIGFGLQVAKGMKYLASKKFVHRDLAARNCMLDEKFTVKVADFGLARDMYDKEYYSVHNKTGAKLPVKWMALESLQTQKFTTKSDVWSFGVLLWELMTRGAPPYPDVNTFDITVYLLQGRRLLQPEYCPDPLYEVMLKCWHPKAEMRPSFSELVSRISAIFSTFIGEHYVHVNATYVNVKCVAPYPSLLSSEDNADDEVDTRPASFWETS

In the case of `CCOc1ccn(-c2ccc(F)cc2)c(=O)c1C(=O)Nc1ccc(Oc2ncnc(N)c2Cl)c(F)c1` [Cmpd 2, N-(4-((6-amino-5-chloropyrimidin-4-yl)oxy)-3-fluorophenyl)-4-ethoxy-1-(4-fluorophenyl)-2-oxo-1,2-dihydropyridine-3-carboxamide], the remaining activity at 1 µM on AXL came to 2%; at MET, 2%; at Mer, 1%; at TYRO3 it was 0%; at CDK2E, 94%; on CDK4D1 it was 38%. For the same compound, the “% Residual enzymatic activity at 1 µM FLT3-ITD” value (“% Residual enzymatic activity” below) with FLT3-ITD worked out at 52%. In the test with MV4-11, the activity at 1 µM turned out to be 15%.
Consider `Nc1ncnc(Oc2ccc(NC(=O)c3cccn(-c4ccc(F)cc4)c3=O)cc2Cl)c1Cl` [Cmpd 23, N-(4-((6-amino-5-chloropyrimidin-4-yl)oxy)-3-chlorophenyl)-1-(4-fluorophenyl)-2-oxo-1,2-dihydropyridine-3-carboxamide], for which the remaining activity at 1 µM is 67% on AXL, 98% on MET, 95% on Mer and 63% at TYRO3. Besides, the “% Residual enzymatic activity” value with FLT3-ITD came out at 51%. In the test on MV4-11, the activity at 1 µM was 1%.
As for `Nc1ncnc(Oc2ccc(NC(=O)c3cccn(-c4ccc(F)cc4)c3=O)c(F)c2F)c1Cl` [Cmpd 13, N-(4-((6-amino-5-chloropyrimidin-4-yl)oxy)-2,3-difluorophenyl)-1-(4-fluorophenyl)-2-oxo-1,2-dihydropyridine-3-carboxamide], the remaining activity at 1 µM at AXL was found to be 67%; on MET, 94%; on Mer, 91%; at TYRO3, 87%. In addition, the “% Residual enzymatic activity” value in the test on FLT3-ITD amounted to 74%. The compound further gave an activity at 1 µM in the test on MV4-11 of 7%.
Turning to `Nc1ncnc(Oc2cc(F)c(NC(=O)c3cccn(-c4ccc(F)cc4)c3=O)cc2F)c1Cl` [Cmpd 21, N-(4-((6-amino-5-chloropyrimidin-4-yl)oxy)-2,5-difluorophenyl)-1-(4-fluorophenyl)-2-oxo-1,2-dihydropyridine-3-carboxamide], the remaining activity at 1 µM amounted to 3% on AXL, 5% on MET, 30% at Mer and 3% at TYRO3. For the same compound, the “% Residual enzymatic activity” value with FLT3-ITD is listed as 22%. The same compound returned an activity at 1 µM in the test with MV4-11 of 3%.

For the origin of these results see US20230339889A1, “DERIVATIVES OF 2-OXO-N-(4-(PYRIMIDIN-4-YLOXY/THIO)PHENYL)-1,2-DIHYDROPYRIDINE-3-CARBOXAMIDE FOR USE AS PROTEIN KINASE INHIBITORS FOR THERAPY” (AUCENTRA THERAPEUTICS PTY LTD, priority 2020, published 2023).
